Drawing on patent US12590062B2, “PD-1/PD-L1 inhibitors” (Gilead Sciences, Inc., priority 2017, dated 2026), this text covers IC50 and EC50 for twelve compounds.

The target in one experiment is PD-1/PD-L1 (Homo sapiens, UniProt Q9NZQ7). Put plainly: PD-1/PD-L1 biochemical protein-protein interaction assay (ALPHA). It counts as binding. Conditions: 0.3 nM His tagged PD-L1, 2.5 nM biotinylated Fc-PD-1, 60 minutes at 25° C., read-out: IC50 PD-L1-PD-1 Alpha IC50-mono PD-L1-fcP-D1. In a few lines: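 IC50 values derive from four-parameter fits of ALPHA signal decrease. Assay: 0.3 nM His-tagged PD-L1 with 2.5 nM biotinylated Fc-PD-1, Hepes pH 7.4 with 0.005% Tween 20 and 0.01% BSA, 60 min at 25° C, then anti-His acceptor and streptavidin donor beads.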

Experiment [1] concerns the target T1, interaction between the recombinant extracellular domain (ECD) of PD-1 and native cell-bound PD-L1 (Homo sapiens, UniProt Q9NZQ7).
T1 construct: expressed in transfected cells
Put plainly: CHO/PD-L1 cell capture assay. It counts as cell-based. Conditions: CHO cells overexpressing PD-L1, pre-incubated 1 hr with compound, captured on biotinylated Fc-PD-1 coated plates, 75 min at room temperature. In a few lines: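 EC50 values came from four-parameter fits of counts of Draq5-stained CHO-PD-L1 cells retained on plate-bound biotinylated Fc-PD-1 ECD, enumerated by high-content imaging. Cells in PBS pH 7.4 with EDTA and 2% BSA had 1 hr compound pre-incubation, then 75 min capture at room temperature.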

The target of a further experiment is T2, PD-1/PD-L1 interaction (Homo sapiens, UniProt Q9NZQ7).
T2 construct: expressed in transfected cells; host or cells: CHO cells (aAPC-PD-L1) co-cultured with Jurkat cells overexpressing PD-1 and an NFAT-luciferase reporter
The experiment in a line: PD-1/PD-L1 NFAT reporter co-culture assay. In kind it is cell-based. The settings on record: Jurkat PD-1 NFAT-luciferase cells co-cultured with aAPC-PD-L1 CHO cells, 6 hrs at 37° C.; read-out: EC50 NFAT Luciferase. In a few lines:
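Luminescence (ONE-Glo) after 6 h, 37 °C co-culture reports NFAT-luciferase in PD-1 Jurkat cells, which PD-1/PD-L1 engagement suppresses. Partner cells: CHO expressing anti-CD3 and PD-L1. EC50 from four-parameter dose-response fit.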

Sequence of PD-1/PD-L1 (Q9NZQ7 19-238 limits assumed): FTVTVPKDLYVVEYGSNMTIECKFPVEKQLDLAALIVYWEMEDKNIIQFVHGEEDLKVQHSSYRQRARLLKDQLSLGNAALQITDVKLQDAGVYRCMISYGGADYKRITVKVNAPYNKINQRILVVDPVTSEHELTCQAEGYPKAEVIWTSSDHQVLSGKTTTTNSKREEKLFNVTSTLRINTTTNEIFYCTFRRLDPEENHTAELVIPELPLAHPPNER
T2 sequence (Q9NZQ7 19-290): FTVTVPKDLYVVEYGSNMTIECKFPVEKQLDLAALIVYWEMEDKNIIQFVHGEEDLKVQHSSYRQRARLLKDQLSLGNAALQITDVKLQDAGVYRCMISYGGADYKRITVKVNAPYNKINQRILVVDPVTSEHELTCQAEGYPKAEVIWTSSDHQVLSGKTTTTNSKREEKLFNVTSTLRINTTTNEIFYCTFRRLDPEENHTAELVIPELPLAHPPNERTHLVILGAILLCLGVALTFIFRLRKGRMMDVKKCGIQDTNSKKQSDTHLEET
T1 sequence (Q9NZQ7 19-290): as above

Regarding `Cc1c(COc2nc(OCc3cncc(C#N)c3)c(CNC[C@@H](O)CC(=O)O)cc2Cl)cccc1-c1cccc(COc2nc(OCc3cncc(C#N)c3)c(CNC[C@@H](O)CC(=O)O)cc2Cl)c1C` [Example 34, (3S,3′S)-4,4′-((((((2,2′-dimethyl-[1,1′-biphenyl]-3,3′-diyl)bis(methylene))bis(oxy))bis(5-chloro-2-((5-cyanopyridin-3-yl)methoxy)pyridine-6,3-diyl))bis(methylene))bis(azanediyl))bis(3-hydroxybutanoic acid)], on PD-1/PD-L1, the IC50 worked out at 0.0004 µM. For the same compound, the EC50 in experiment [1] came to 0.321 µM; at PD-1/PD-L1 interaction it was 0.195 µM.

For the compound `COc1nc(OC2CCc3c(-c4cccc5c4CCC5Oc4ccc(CNC[C@@H](O)CC(=O)O)c(OC)n4)cccc32)ccc1CNC[C@@H](O)CC(=O)O` (stereo partly drawn) [Example 13, (3S,3′S)-4,4′-(((((2,2′,3,3′-tetrahydro-1H,1′H-[4,4′-biindene]-1,1′-diyl)bis(oxy))bis(2-methoxypyridine-6,3-diyl))bis(methylene))bis(azanediyl))bis(3-hydroxybutanoic acid)], the IC50 at PD-1/PD-L1 was 0.0022 µM. In addition, the half-maximal effective concentration (EC50) was determined as 0.457 µM in experiment [1] and 4.8 µM on PD-1/PD-L1 interaction.

Regarding `COc1cc(OCc2cccc(-c3cccc(COc4cc(OC)c(CNC[C@@H](O)CC(=O)O)c(OCc5cncc(C#N)c5)c4)c3C)c2C)cc(OCc2cncc(C#N)c2)c1CNC[C@@H](O)CC(=O)O` [Example 245, (3S,3′S)-4,4′-((((((2,2′-dimethyl-[1,1′-biphenyl]-3,3′-diyl)bis(methylene))bis(oxy))bis(2-((5-cyanopyridin-3-yl)methoxy)-6-methoxy-4,1-phenylene))bis(methylene))bis(azanediyl))bis(3-hydroxybutanoic acid)], on PD-1/PD-L1, the half-inhibitory concentration (IC50) was found to be 0.0006 µM. Besides, the results for the EC50 (in experiment [1]; on PD-1/PD-L1 interaction) were 0.308 µM and 3.44 µM, respectively.

Turning to `Cc1c(COc2nc(OCc3cc(C#N)cc(C#N)c3)c(CNC[C@@H](O)CC(=O)O)cc2Br)cccc1-c1cccc(COc2nc(OCc3cc(C#N)cc(C#N)c3)c(CNC[C@@H](O)CC(=O)O)cc2Br)c1C` [Example 121, (3S,3′S)-4,4′-((((((2,2′-dimethyl-[1,1′-biphenyl]-3,3′-diyl)bis(methylene))bis(oxy))bis(5-bromo-2-((3,5-dicyanobenzyl)oxy)pyridine-6,3-diyl))bis(methylene))bis(azanediyl))bis(3-hydroxybutanoic acid)], the IC50 at PD-1/PD-L1 was found to be 0.0014 µM. The EC50 in experiment [1] amounted to 0.176 µM; on PD-1/PD-L1 interaction, 0.074 µM.

Turning to `CCCc1cc(CNCCO)c(OCc2cncc(C#N)c2)cc1OCc1cccc(-c2cccc(COc3cc(OCc4cncc(C#N)c4)c(CNCCO)cc3CCC)c2C)c1C` [Example 39, 5,5′-((((((2,2′-dimethyl-[1,1′-biphenyl]-3,3′-diyl)bis(methylene))bis(oxy))bis(6-(((2-hydroxyethyl)amino)methyl)-4-propyl-3,1-phenylene))bis(oxy))bis(methylene))dinicotinonitrile], the IC50 at PD-1/PD-L1 was 0.167 µM. Besides, the EC50 in experiment [1] was 0.267 µM; at PD-1/PD-L1 interaction, at least 50 µM.

For `COc1nc(OCc2cccc(-c3cccc(COc4cc(OCc5cncc(C#N)c5)c(CNC[C@@H](O)CC(=O)O)cc4Cl)c3C)c2C)ccc1CNC[C@@H](O)CC(=O)O` [Example 203, (S)-4-(((6-((3′-((4-((((S)-3-Carboxy-2-hydroxypropyl)amino)methyl)-2-chloro-5-((5-cyanopyridin-3-yl)methoxy)phenoxy)methyl)-2,2′-dimethyl-[1,1′-biphenyl]-3-yl)methoxy)-2-methoxypyridin-3-yl)methyl)amino)-3-hydroxybutanoic acid], at PD-1/PD-L1, the IC50 worked out at 0.001 µM. For the same compound, the EC50 stood at 0.317 µM in experiment [1] and 0.696 µM on PD-1/PD-L1 interaction.

As to `COc1nc(OCc2cccc(-c3cccc(COc4nc(OC)c(CNC[C@H](O)CC(=O)O)cc4Br)c3C)c2C)c(Br)cc1CNC[C@H](O)CC(=O)O` [Example 114, (3R,3′R)-4,4′-((((((2,2′-dimethyl-[1,1′-biphenyl]-3,3′-diyl)bis(methylene))bis(oxy))bis(5-bromo-2-methoxypyridine-6,3-diyl))bis(methylene))bis(azanediyl))bis(3-hydroxybutanoic acid)], on PD-1/PD-L1, the IC50 was found to be 0.0005 µM. The figures for the EC50 (in experiment [1]; on PD-1/PD-L1 interaction) were 0.14 µM and 0.186 µM, respectively.

As for `Cc1c(COc2cc(OCc3cncc(C#N)c3)c(CNC[C@@H](O)CC(=O)O)cc2Cl)cccc1-c1cccc2c1CCN2C(=O)c1ccc(CNC[C@@H](O)CC(=O)O)c(OCc2cncc(C#N)c2)c1` [Example 206, (S)-4-((4-(4-(3-((4-((((S)-3-Carboxy-2-hydroxypropyl)amino)methyl)-2-chloro-5-((5-cyanopyridin-3-yl)methoxy)phenoxy)methyl)-2-methylphenyl)indoline-1-carbonyl)-2-((5-cyanopyridin-3-yl)methoxy)benzyl)amino)-3-hydroxybutanoic acid], the IC50 on PD-1/PD-L1 is 0.0002 µM. In addition, the EC50 is 0.161 µM in experiment [1] and 0.672 µM at PD-1/PD-L1 interaction.

In the case of `COc1nc(OCc2cccc(-c3cccc(COc4nc(OC)c(CNC[C@@H](O)CC(=O)O)cc4I)c3C)c2C)c(I)cc1CNC[C@@H](O)CC(=O)O` [Example 241, (3S,3′S)-4,4′-((((((2,2′-dimethyl-[1,1′-biphenyl]-3,3′-diyl)bis(methylene))bis(oxy))bis(5-iodo-2-methoxypyridine-6,3-diyl))bis(methylene))bis(azanediyl))bis(3-hydroxybutanoic acid)], the IC50 at PD-1/PD-L1 was found to be 0.0006 µM. Also, the EC50 is 0.166 µM in experiment [1] and 0.275 µM at PD-1/PD-L1 interaction.

For the compound `Cc1c(-c2ccc(OCCNC[C@@H](O)CC(=O)O)cc2)cccc1-c1cccc(-c2ccc(OCCNC[C@@H](O)CC(=O)O)cc2)c1C` [Example 106, (3S,3′S)-4,4′-((((2′,2″-dimethyl-[1,1′:3′,1″:3″,1′″-quaterphenyl]-4,4′″-diyl)bis(oxy))bis(ethane-2,1-diyl))bis(azanediyl))bis(3-hydroxybutanoic acid)], the IC50 at PD-1/PD-L1 came out at 0.0004 µM. Besides, the EC50 in experiment [1] came to 0.11 µM; on PD-1/PD-L1 interaction it was 5.27 µM.

In the case of `Cc1c(COc2ccc(CNC[C@@H](O)CC(=O)O)c(OCc3cncc(C#N)c3)c2)cccc1-c1cccc(COc2ccc(CNC[C@@H](O)CC(=O)O)c(OCc3cncc(C#N)c3)c2)c1C` [Example 248, (3S,3′S)-4,4′-((((((2,2′-dimethyl-[1,1′-biphenyl]-3,3′-diyl)bis(methylene))bis(oxy))bis(2-((5-cyanopyridin-3-yl)methoxy)-4,1-phenylene))bis(methylene))bis(azanediyl))bis(3-hydroxybutanoic acid)], on PD-1/PD-L1, the IC50 worked out at 0.0002 µM. For the same compound, the EC50 in experiment [1] stood at 0.2 µM; at PD-1/PD-L1 interaction, 0.54 µM.

As to `Cc1c(COc2nc(OCc3cncc(S(C)(=O)=O)c3)c(CN[C@@](C)(CO)C(=O)O)cc2Br)cccc1-c1cccc(COc2nc(OCc3cncc(S(C)(=O)=O)c3)c(CN[C@@](C)(CO)C(=O)O)cc2Br)c1C` [Example 41, (2S,2′S)-2,2′-((((((2,2′-dimethyl-[1,1′-biphenyl]-3,3′-diyl)bis(methylene))bis(oxy))bis(5-bromo-2-((5-(methylsulfonyl)pyridin-3-yl)methoxy)pyridine-6,3-diyl))bis(methylene))bis(azanediyl))bis(3-hydroxy-2-methylpropanoic acid)], on PD-1/PD-L1, the IC50 was 0.0002 µM. For the same compound, the EC50 worked out at 0.248 µM in experiment [1] and 0.188 µM at PD-1/PD-L1 interaction.
